In brackets after ≈: the same amount, converted by molar mass. Counter-ions that a name gives are not always drawn. Like-named read-outs stand apart in the source and are kept apart here.
How the values were obtained:
[1] = tested on: histamine paw oedema in guinea pigs; experiment: Histamine paw oedema in guinea pigs; assay type: in vivo, guinea pig; settings: Cavia porcellus, oral dose giving paw reaction below 10 units 10 minutes after 50 μg histamine s.p., 2 hours after dosing, read-out: Anaphylaxis in guinea pigs oral effective dose in mg/kg: Histamine oedema
Experimental: Guinea pigs, weighing between 400 and 500 g, are sensitized to ovalbumin by subplantar (s.p.) injection of 0.05 ml of antiserum in the left hind paw. The animals are then starved and orally treated, 24 hours after the sensitization, with saline (=control animals) or a particular dose of the compound under investigation. The histamine injection (at a dose of 50 μg) was given s.p. in the right hind paw 2 hours after the oral pretreatment with the compound.

[2] = tested on: Guinea-pig ileum strips, histamine-induced contraction; experiment: Anti-histamine activity in "vitro": histamine-induced spasms of guinea-pig ileum strips; assay type: cell-based; settings: Cavia porcellus, 5 min, histamine 0.5 mg/liter, 5 minutes incubation, concentration giving significant inhibition (50%) of the contraction
Experimental: The histamine--(0.5 mg/liter) induced spasms are recorded Kymographically with an isotonic lever giving a 5-fold magnification.

[3] = tested on: Guinea pigs sensitized to ovalbumin (anaphylactic shock); experiment: Anaphylaxis in guinea pigs: protection against death after ovalbumin challenge (survival); assay type: in vivo, guinea pig; settings: Cavia porcellus, estimated ED50, oral, protection against death after i.v. 0.6 mg ovalbumin, read-out: Anaphylaxis in guinea pigs oral effective dose in mg/kg: Survival
Experimental: The anti-anaphylactic and antihistaminic effects of the subject compounds (I) and salts thereof are studied "in vivo" in guinea pigs.
Guinea pigs, weighing between 400 and 500 g, are sensitized to ovalbumin by subplantar (s.p.) injection of 0.05 ml of antiserum in the left hind paw. The animals are then starved and orally treated, 24 hours after the sensitization, with saline (=control animals) or a particular dose of the compound under investigation.
The histamine injection (at a dose of 50 μg) was given s.p. in the right hind paw 2 hours after the oral pretreatment with the compound. The diameters of both hind paws are first measured before the histamine injection is given and again 10 minutes thereafter. The animals are challenged intravenously with 0.6 mg of ovalbumin 30 minutes after the histamine injection. All control animals develop typical primary anaphylactic shock symptoms (coughing, difficult breathing, convulsions) and 85% of these control animals die within 15 minutes after the ovalbumin injection. Protection against death is used as the criterion for possible drug effects and the estimated ED50 -value, i.e. the oral dose whereby the protection is observed in 50% of the guinea pigs, is listed in the tables below.

[4] = Table I-a, read-out: Histamine in "vitro" (ileum) effective conc.
[5] = Table I-d, read-out: Histamine in "vitro" (ileum) effective dose

SMILES	minimal effective dose ([1]; Table I-a)	IC50 [2, 4]	ED50 ([3]; Table I-a)	other results
O=c1[nH]c2ccccc2n1CCCN1CCN(C(c2ccccc2)c2ccc(Br)cc2)CC1 (stereo not drawn) [1-[3-{4-[(4-bromophenyl)phenylmethyl]-1-piperazinyl}propyl]-1,3-dihydro-2H-benzimidazol-2-one]	< 2.5 mg/kg	0.16 mg/L (≈ 0.317 µM)	< 2.5 mg/kg	
Cc1ccc(C(c2ccc(F)cc2)N2CCN(CCCn3c(=O)[nH]c4ccccc43)CC2)cc1 (stereo not drawn) [1-[3-{4-[(4-fluorophenyl)-(4-methylphenyl)methyl]-1-piperazinyl}propyl]-1,3-dihydro-2H-benzimidazol-2-one]	< 2.5 mg/kg	0.16 mg/L (≈ 0.349 µM)	< 2.5 mg/kg	
O=c1[nH]c2ccccc2n1CCCN1CCN(C(c2ccc(Cl)cc2)c2ccc(Cl)cc2)CC1 [1-[3-{4-[bis(4-chlorophenyl)methyl]-1-piperazinyl}propyl]-1,3-dihydro-2H-benzimidazol-2-one]	< 2.5 mg/kg	0.16 mg/L (≈ 0.323 µM)	< 2.5 mg/kg	
O=c1[nH]c2ccccc2n1CCCN1CCC(OC(c2ccc(F)cc2)c2ccc(F)cc2)CC1 [1-[3-{4-[bis(4-fluorophenyl)methoxy]-1-piperidinyl}propyl]-1,3-dihydro-2H-benzimidazol-2-one hydrochloride.hemihydrate]				minimal effective dose ([1]; Table I-d): 0.63 mg/kg; IC50 [2, 5]: 0.0025 mg/L; ED50 ([3]; Table I-d): 0.63 mg/kg
CC(CN1CCN(C(c2ccc(F)cc2)c2ccc(F)cc2)CC1)Cn1c(=O)[nH]c2ccccc21 (stereo not drawn) [1-[3-{4-[bis(4-fluorophenyl)methyl]-1-piperazinyl}-2-methylpropyl]-1,3-dihydro-2H-benzimidazol-2-one]	1.25 mg/kg	0.02 mg/L (≈ 0.042 µM)	1.25 mg/kg	
CC(CN1CCN(C(c2ccc(F)cc2)c2ccc(F)cc2)CC1)Cn1cnc2ccccc21 (stereo not drawn) [1-[3-{4-[bis(4-fluorophenyl)methyl]-1-piperazinyl}-2-methylpropyl]-1H-benzimidazole trihydrochloride.hemihydrate]				minimal effective dose ([1]; Table I-b): 1.25 mg/kg; IC50 ([2]; Table I-b, read-out: Histamine in "vitro" (ileum) effective conc.): 0.02 mg/L; ED50 ([3]; Table I-b): 0.63 mg/kg
O=c1[nH]c2ccccc2n1CCCN1CCN(C(c2ccc(F)cc2)c2ccc(F)cc2)CC1 [1-[3-{4-[bis(4-fluorophenyl)methyl]-1-piperazinyl}propyl]-1,3-dihydro-2H-benzimidazol-2-one]	0.16 mg/kg	0.01 mg/L (≈ 0.0216 µM)	0.31 mg/kg	
O=c1[nH]c2cc(Cl)ccc2n1CCCN1CCN(C(c2ccc(F)cc2)c2ccc(F)cc2)CC1 [1-[3-{4-[bis(4-fluorophenyl)methyl]-1-piperazinyl}propyl]-5-chloro-1,3-dihydro-2H-benzimidazol-2-one]	1.25 mg/kg	0.04 mg/L (≈ 0.0805 µM)	1.25 mg/kg	
O.O=c1[nH]c2ccc(Cl)cc2n1CCCN1CCN(C(c2ccc(F)cc2)c2ccc(F)cc2)CC1 [1-[3-{4-[bis(4-fluorophenyl)methyl]-1-piperazinyl}propyl]-6-chloro-1,3-dihydro-2H-benzimidazol-2-one hydrate]	1.25 mg/kg	0.02 mg/L	0.63 mg/kg	
O=c1[nH]c2ccccc2n1CCCN1CCN(C(c2ccccc2)c2cccc(Cl)c2)CC1 (stereo not drawn) [1-[3-{4-[α-(3-chlorophenyl-α-phenylmethyl]-1-piperazinyl}propyl]-1,3-dihydro-2H-benzimidazol-2-one]	1.25 mg/kg	0.01 mg/L (≈ 0.0217 µM)	0.63 mg/kg	
O=c1[nH]c2ccccc2n1CCCN1CCN(C(c2ccc(Cl)cc2)c2ccccc2F)CC1 (stereo not drawn) [1-[3-{4-[α-(4-chlorophenyl)-α-(2-fluorophenyl)]-1-piperazinyl}propyl]-1,3-dihydro-2H-benzimidazol-2-one]	1.25 mg/kg	0.02 mg/L (≈ 0.0418 µM)	0.31 mg/kg	
O=c1[nH]c2ccccc2n1CCCN1CCN(C(c2ccccc2)c2ccc(Cl)cc2)CC1 (stereo not drawn) [1-[3-{4-[α-(4-chlorophenyl)-α-phenylmethyl]-1-piperazinyl}propyl]-1,3-dihydro-2H-benzimidazol-2-one]	0.63 mg/kg	0.01 mg/L (≈ 0.0217 µM)	1.25 mg/kg	
O=c1[nH]c2ccccc2n1CCCN1CCN(C(c2ccccc2)c2ccc(F)cc2)CC1 (stereo not drawn) [1-[3-{4-[α-(4-fluorophenyl)-α-phenylmethyl]-1-piperazinyl}propyl]-1,3-dihydro-2H-benzimidazol-2-one]	0.31 mg/kg	0.01 mg/L (≈ 0.0225 µM)	0.31 mg/kg	
O=c1[nH]c2ccccc2n1CCCCN1CCN(C(c2ccc(F)cc2)c2ccc(F)cc2)CC1 [1-[4-{4-[bis(4-fluorophenyl)methyl]-1-piperazinyl}-butyl]-1,3-dihydro-2H-benzimidazol-2-one dihydrochloride.hydrate.hemiethanolate]	0.31 mg/kg	0.01 mg/L	0.16 mg/kg	
O=c1[nH]c2ccccc2n1CCCCCN1CCN(C(c2ccc(F)cc2)c2ccc(F)cc2)CC1 [1-[5-{4-[bis(4-fluorophenyl)-methyl]-1-piperazinyl}pentyl]-1,3-dihydro-2H-benzimidazol-2-one dihydrochloride.hydrate]	2.5 mg/kg	0.01 mg/L	1.25 mg/kg	
CC(=O)n1c(=O)n(CCCN2CCN(C(c3ccccc3)c3ccccc3)CC2)c2ccccc21 [1-acetyl-3-{3-[4-(diphenylmethyl)-1-piperazinyl]propyl}-1,3-dihydro-2H-benzimidazol-2-one]	0.31 mg/kg	0.005 mg/L (≈ 0.0107 µM)	0.1 mg/kg	
Cl.O=c1[nH]c2ccccc2n1CCN1CCC(OC(c2ccccc2)c2ccccc2)CC1 [1-{2-[4-(diphenylmethoxy)-1-piperidinyl]ethyl}-1,3-dihydro-2H-benzimidazol-2-one hydrochloride]				minimal effective dose ([1]; Table I-d): 0.16 mg/kg; IC50 [2, 5]: 0.0025 mg/L; ED50 ([3]; Table I-d): 0.31 mg/kg
O=c1[nH]c2cc(C(F)(F)F)ccc2n1CCN1CCN(C(c2ccccc2)c2ccccc2)CC1 [1-{2-[4-(diphenylmethyl)-1-piperazinyl]ethyl}-1,3-dihydro-5-(trifluoromethyl)-2H-benzimidazol-2-one]	1.25 mg/kg	0.02 mg/L (≈ 0.0416 µM)	0.31 mg/kg	
Cc1ccc2c(c1)[nH]c(=O)n2CCN1CCN(C(c2ccccc2)c2ccccc2)CC1 [1-{2-[4-(diphenylmethyl)-1-piperazinyl]ethyl}-1,3-dihydro-5-methyl-2H-benzimidazol-2-one]	1.25 mg/kg	0.01 mg/L (≈ 0.0234 µM)	1.25 mg/kg	
O=c1[nH]c2ccccc2n1CCCN1CCC(OC(c2ccccc2)c2ccccc2)CC1 [1-{3-[4-(diphenylmethoxy)-1-piperidinyl]-propyl}-1,3-dihydro-2H-benzimidazol-2-one]				minimal effective dose ([1]; Table I-d): 1.25 mg/kg; IC50 [2, 5]: 0.0025 mg/L (≈ 0.00566 µM); ED50 ([3]; Table I-d): 0.63 mg/kg
c1ccc(C(OC2CCN(CCCn3cnc4ccccc43)CC2)c2ccccc2)cc1 [1-{3-[4-(diphenylmethoxy)-1-piperidinyl]propyl}-1H-benzimidazole]				minimal effective dose ([1]; Table I-d): 0.16 mg/kg; IC50 [2, 5]: 0.0025 mg/L (≈ 0.00587 µM); ED50 ([3]; Table I-d): 0.16 mg/kg
C=C(C)n1c(=O)n(CCCN2CCN(C(c3ccccc3)c3ccccc3)CC2)c2ccccc21 [1-{3-[4-(diphenylmethyl)-1-piperazinyl]propyl}-1,3-dihydro-3-(1-methylethenyl)-2H-benzimidazol-2-one]	0.31 mg/kg	0.01 mg/L (≈ 0.0214 µM)	0.16 mg/kg	
O=c1n(CO)c2ccccc2n1CCCN1CCN(C(c2ccccc2)c2ccccc2)CC1 [1-{3-[4-(diphenylmethyl)-1-piperazinyl]propyl}-1,3-dihydro-3-(hydroxymethyl)-2H-benzimidazol-2-one]	0.31 mg/kg	0.01 mg/L (≈ 0.0219 µM)	0.31 mg/kg	
Cl.Cl.O=c1n(CCCN2CCN(C(c3ccccc3)c3ccccc3)CC2)c2ccccc2n1Cc1ccccc1 [1-{3-[4-(diphenylmethyl)-1-piperazinyl]propyl}-1,3-dihydro-3-(phenylmethyl)-2H-benzimidazol-2-one dihydrochloride]	1.25 mg/kg	0.16 mg/L	1.25 mg/kg	

From patent US4250176A, “Piperazine derivatives” (priority 1979, dated 1981)
